Test results published in US9687485B2, “Combination therapy with glutaminase inhibitors” (Calithera Biosciences, Inc., priority 2014, dated 2017).
Where two headings read alike, the source gives them in different places.

What was measured:
Assay type in all cases: cell-based
[1] = tested on: renal cell carcinoma cell lines; assay: Co-administration, cell viability (Cell Titer Glo), renal cell carcinoma
Protocol: (§1) Cells were treated with a dose titration of either CB-839, an anti-cancer agent or a mixture thereof for 72 hours in growth media. At the end of the incubation, cell viability was measured using Cell Titer Glo as per manufacturer's protocol (Promega, Madison, Wis.). Cell proliferation for all compound treatments are represented as bar graphs, where luminescent output, Relative Light Units (RLU), correlates with viable cell number. Combination indices were calculated using the Calcusyn program (biosoft.com) and reported for individual mixtures of CB-839 and each agent.

lung cancer cell lines = assay: Co-administration, cell viability (Cell Titer Glo), lung cancer
Protocol: as §1

[2] = tested on: triple negative breast cancer cell lines; assay: Co-administration, cell viability (Cell Titer Glo), triple negative breast cancer
Protocol: as §1

[3] = tested on: renal clear cell carcinoma cells; assay: Co-administration, cell viability, renal clear cell carcinoma (FIG. 25); conditions: combination with everolimus
Protocol: as §1

[4] = tested on: multiple myeloma cell lines; assay: Co-administration, cell viability (Cell Titer Glo), multiple myeloma
Protocol: as §1

H1650 NSCLC cell lines = assay: Co-administration, cell viability, NSCLC (FIG. 26)
Protocol: as §1

P493-6 (myc “on”) cells = assay: Cell Proliferation Assay; conditions: read-out: Cell prolif P493 72 h IC50
Protocol: P493-6 (myc “on”) cells were maintained in growth media (RPMI-1640, 10% FBS, 2 mM glutamine, 100 units/ml Penicillin and 100 μg/ml streptomycin) at 37° C. with 5% CO2. For compound assay, P493-6 cells were plated in 96-well V-bottom plates on the day of compound addition in 50 μl of growth media at a cell density of 200,000 cells/ml (10,000 cells/well). Compounds were serially diluted in 100% DMSO at 200-times the final concentration. Compounds were diluted 100-fold into growth media and then 50 μl of this mixture was added to cell plates making the final concentration of DMSO 0.5%. Cells were incubated with compound for 72 hrs at 37° C. with 5% CO2 and analyzed for antiproliferative effects either by Cell Titer Glo (Promega) or FACS analysis using the Viacount (Millipore) kit on the Guava instrument.

O=C(Cc1cccc(OC(F)(F)F)c1)Nc1ccc(CCCCc2nnc(NC(=O)Cc3ccccn3)s2)nn1 [CB-839]
interaction of CB-839 with RTK inhibitor sorafenib ([1]; FIG. 17, combination with sorafenib, 72 hours): synergy | interaction of CB-839 with C-kit and pan-RTK inhibitor sunitinib ([1]; FIG. 18, combination with sunitinib, 72 hours): synergy | interaction of CB-839 with pan-RTK inhibitor pazopanib ([1]; FIG. 19, combination with pazopanib, 72 hours): synergy | interaction of CB-839 with mTOR inhibitor everolimus ([1]; FIG. 20, combination with everolimus, 72 hours): synergy | interaction of CB-839 with mTOR inhibitor temsirolimus ([1]; FIG. 21, combination with temsirolimus, 72 hours): synergy | interaction of CB-839 with MEK inhibitor trametinib ([1]; FIG. 22, combination with trametinib, 72 hours): synergy | interaction of CB-839 with AKT inhibitor MK2206 ([1]; FIG. 23, combination with MK2206, 72 hours): synergy | interaction of CB-839 with PI3K/mTOR inhibitor BEZ235 ([1]; FIG. 24, combination with BEZ235, 72 hours): therapeutic interaction | interaction of CB-839 with EGFR inhibitor erlotinib (lung cancer cell lines; FIG. 11, combination with erlotinib, 72 hours): synergy | interaction of CB-839 with MEK inhibitor trametinib (lung cancer cell lines; FIG. 12, combination with trametinib, 72 hours): synergy | interaction of CB-839 with mTOR inhibitor everolimus (lung cancer cell lines; FIG. 13, combination with everolimus, 72 hours): synergy | interaction of CB-839 with mTOR inhibitor temsirolimus (lung cancer cell lines; FIG. 14, combination with temsirolimus, 72 hours): synergy | interaction of CB-839 with AKT inhibitor MK2206 (lung cancer cell lines; FIG. 15, combination with MK2206, 72 hours): synergy | interaction of CB-839 with PI3K/mTOR inhibitor BEZ235 (lung cancer cell lines; FIG. 16, combination with BEZ235, 72 hours): synergy | interaction of CB-839 with carboplatin ([2]; FIG. 6, combination with carboplatin, 72 hours): therapeutic interaction | interaction of CB-839 with cytidine analog gemcitabine ([2]; FIG. 7, combination with gemcitabine, 72 hours): additive effect | interaction of CB-839 with doxorubicin ([2]; FIG. 8, combination with doxorubicin, 72 hours): therapeutic interaction | interaction of CB-839 with mTOR inhibitor everolimus ([2]; FIG. 9, combination with everolimus, 72 hours): synergy | interaction of CB-839 with AKT inhibitor MK2206 ([2]; FIG. 10, combination with MK2206, 72 hours): synergy | effect of the combination of CB-839 and everolimus [3]: synergistic antiproliferative activity | interaction of CB-839 with vincristine ([4]; FIG. 1, combination with vincristine, 72 hours): synergy | interaction of CB-839 with AKT inhibitor MK2206 ([4]; FIG. 2, combination with MK2206, 72 hours): strong synergy | interaction of CB-839 with mTOR inhibitor everolimus ([4]; FIG. 3, combination with everolimus, 72 hours): strong synergy | interaction of CB-839 with MEK inhibitor trametinib ([4]; FIG. 4, combination with trametinib, 72 hours): strong synergy | interaction of CB-839 with RTK inhibitor sorafenib ([4]; FIG. 5, combination with sorafenib, 72 hours): strong synergy | effect of the combination of CB-839 and erlotinib (H1650 NSCLC cell lines; combination with erlotinib, erlotinib-resistant model): enhances the anti-tumor effects of each individual compound

[2H]C([2H])(CCc1nnc(N)s1)C([2H])([2H])c1ccc(NC(=O)Cc2cccc(OC(F)(F)F)c2)nn1 [Compound 726]
IC50 (P493-6 (myc “on”) cells; P493-6, 72 h): 610 nM

[2H]C([2H])(CCc1nnc(NC(=O)Cc2ccccn2)s1)C([2H])([2H])c1ccc(NC(=O)Cc2cccc(OC(F)(F)F)c2)nn1 [Compound 727]
IC50 (P493-6 (myc “on”) cells; 72 h): 12 nM

C#Cc1cccc(Nc2ncnc3cc(OCCOC)c(OCCOC)cc23)c1 [erlotinib, reference compound]
sensitivity of the cells to erlotinib (H1650 NSCLC cell lines; erlotinib alone): resistant
